What all share (assay): In vitro inhibition, CellTiter-Glo (CTG) assay
Common to all, as to assay type: cell-based
Background: In ATP-based viability assays light output follows the ATP content of the culture.

Assay [1] deals with NCI-H69. The protocol: (§1) Cells were grown in RPMI-1640 supplemented with L-Glutamine and 10% FBS of the following cell lines:
(§2) CCRF-CEM; HL-60; KG-1; CFPAC-1; MiaPACA-2; BxPC-3; HepG2; MDA-MB-231; HCT-116; A498; and NCI-H69
(§3) 18, 96 well plates of each cell line were seeded with the optimized number of cells per well in a total volume of 50 μper well. The plates were left overnight. Plate wells were seeded with 100 pt media for media control. The following day, cells were exposed to test compounds as described below. At the same time as drug exposure, a CTG assay was conducted on the 18th plate for the 0 hr count.
(§4) The compounds were added to cells and medium already on the plate to give desired final concentrations. 50 μL media were added to cell control wells, and 50 μL of mix added to vehicle control wells. 10 μM Doxorubicin was added to appropriate wells as control. Cells exposed to test compound were incubated at 37° C. for 72 hr followed by a CTG assay.
(§5) At the end of the 72 hr exposure period, plates were removed for a CellTiter-Glo (CTG) assay from a 37° C., 5% CO2 incubator and placed on the bench at room temperature for 30 mins. 100 μL of CellTiter-Glo reagent was added and mixed for 2 mins, followed by a further 10 min incubation at room temperature. Luminescence was recorded using Synergy 4.0.

Assay [2] concerns HepG2. On the procedure:
as §1, §2, §3, §4, §5

The subject of assay [3] is HCT-116. The protocol:
as §1, §2, §3, §4, §5

In assay [4] the test system is MiaPACA-2. The protocol:
as §1, §2, §3, §4, §5

Assay [5] deals with CFPAC-1. On the procedure: as §1, §2, §3, §4, §5
Assay [6] concerns MDA-MB-231. The protocol: as §1, §2, §3, §4, §5
For assay [7], the system named is A498. The protocol: as §1, §2, §3, §4, §5
Assay [8] relates to BxPC-3. The protocol: as §1, §2, §3, §4, §5
Where [9] appears, read: Homo sapiens, NCI-H69, 72 h, 72 hr exposure.
The mark [10] stands for this setting: Homo sapiens, HepG2, 72 h, 72 hr exposure.
The mark [11] stands for this setting: Homo sapiens, HCT-116, 72 h, 72 hr exposure.
The mark [12] stands for this setting: Homo sapiens, MIA PaCa-2, 72 h, 72 hr exposure.
Setting [13] is: Homo sapiens, CFPAC-1, 72 h, 72 hr exposure.
Setting [14] is: Homo sapiens, MDA-MB-231, 72 hr exposure.
Setting [15] is: Homo sapiens, A498, 72 h, 72 hr exposure.
[16] abbreviates: Homo sapiens, BXPC-3, 72 h, 72 hr exposure.
Where [17] appears, read: Homo sapiens, NCI-H69, 72 hr exposure.

By IC50 is commonly meant the concentration needed to halve the response being measured.

A value given as a limit tells only on which side of the number the result lay.

`CCOC(=O)[C@H](CC(C)C)NP(=O)(O)OC[C@H]1O[C@@H](n2ccc(N)nc2=O)C(F)(F)[C@@H]1O` [Compound 115, [(2R,3R,5R)-5-(4-amino-2-oxo-pyrimidin-1-yl)-4,4-difluoro-3-hydroxy-tetrahydrofuran-2-yl]methoxy-N-[(1S)-1-ethoxycarbonyl-3-methyl-butyl]phosphonamidic acid]: the IC50 in assay [1] (setting [9]) was 1 to 10 µM; in assay [2] (setting [10]), less than 1 µM; in assay [3] (setting [11]) it was less than 1 µM; in assay [4] (setting [12]), less than 1 µM; in assay [5] (setting [13]), less than 1 µM; in assay [6] (setting [14]), 10 to 100 µM. Besides, the results for the IC50 in assay [7] (setting [15]) and in assay [8] (setting [16]) were 10 to 100 µM and 1 to 10 µM, respectively.
Take `CCCC(CCC)C(=O)Nc1ccn([C@@H]2O[C@@H]3COP(=O)(N[C@H](C)C(=O)OC(C)C)O[C@H]3C2(F)F)c(=O)n1` (single isomer, unassigned) [116 (diastereomer 1)]: the IC50 in assay [1] (setting [9]), in assay [2] (setting [10]), in assay [3] (setting [11]), in assay [4] (setting [12]), in assay [5] (setting [13]) and in assay [6] (setting [14]) was 10 to 100 µM each time. In addition, the half-inhibitory concentration (IC50) in assay [7] (setting [15]) and in assay [8] (setting [16]) was 10 to 100 µM in each case.
As for `CCCC(CCC)C(=O)Nc1ccn([C@@H]2O[C@@H]3COP(=O)(N[C@H](C)C(=O)OC(C)C)O[C@H]3C2(F)F)c(=O)n1` (single isomer, unassigned) [116 (diastereomer 2)], the IC50 in assay [1] (72 hr exposure), in assay [2] (72 hr exposure), in assay [3] (72 hr exposure), in assay [4] (72 hr exposure), in assay [5] (72 hr exposure) and in assay [6] (72 hr exposure) was 10 to 100 µM each time. Further, the half-inhibitory concentration (IC50) in assay [7] (72 hr exposure) and in assay [8] (72 hr exposure) was 10 to 100 µM in each case.
In the case of `CC(C)C(=O)OC[C@@H](C)NP1(=O)OC[C@H]2O[C@@H](n3ccc(N)nc3=O)C(F)(F)[C@@H]2O1` (single isomer, unassigned) [105 (diastereomer 1)], the IC50 in assay [1] (72 hr exposure) is 1 to 10 µM; in assay [2] (setting [10]), less than 1 µM; in assay [3] (72 hr exposure), less than 1 µM; in assay [4] (setting [12]), less than 1 µM; in assay [5] (setting [13]) it was less than 1 µM; in assay [6] (setting [14]), 10 to 100 µM. Also, the IC50 in assay [7] (72 hr exposure) is 10 to 100 µM; in assay [8] (setting [16]), less than 1 µM.
In the case of `CC(C)OC(=O)[C@@H](C)NP1(=O)OC[C@H]2O[C@@H](n3ccc(N)nc3=O)C(F)(F)[C@@H]2O1` (single isomer, unassigned) [101 (diastereomer 2)], the concentration for half-maximal inhibition (IC50) in assay [1] (72 hr exposure) is 10 to 100 µM; in assay [2] (setting [10]), 1 to 10 µM; in assay [3] (72 hr exposure), 10 to 100 µM; in assay [4] (setting [12]), 1 to 10 µM; in assay [5] (setting [13]) it was 1 to 10 µM; in assay [6] (72 hr exposure), 10 to 100 µM. The half-inhibitory concentration (IC50) in assay [7] (72 hr exposure) and in assay [8] (setting [16]) was 10 to 100 µM each time.
Consider `CC(C)(C)SSCCOP(=O)(NCc1ccccc1)OC[C@H]1O[C@@H](n2ccc(N)nc2=O)C(F)(F)[C@@H]1O` (single isomer, unassigned) [111 (diastereomer 2)], for which the IC50 is 10 to 100 µM in assay [1] (72 hr exposure); less than 1 µM in assay [2] (72 hr exposure); less than 1 µM in assay [3] (72 hr exposure); less than 1 µM in assay [4] (72 hr exposure); less than 1 µM in assay [5] (72 hr exposure); 10 to 100 µM in assay [6] (72 hr exposure). Besides, the IC50 in assay [7] (72 hr exposure) lay in the range of 10 to 100 µM; in assay [8] (72 hr exposure), 1 to 10 µM.
As for `Nc1ccn([C@@H]2O[C@H](COP(=O)(OCc3ccc([N+](=O)[O-])o3)OCc3ccc([N+](=O)[O-])o3)[C@@H](O)C2(F)F)c(=O)n1` [Compound 114, [(2R,3R,5R)-5-(4-amino-2-oxo-pyrimidin-1-yl)-4,4-difluoro-3-hydroxy-tetrahydrofuran-2-yl]methyl bis[(5-nitro-2-furyl)methyl] phosphate], the 50% inhibitory concentration (IC50) was 10 to 100 µM in assay [1] (setting [17]); less than 1 µM in assay [2] (Homo sapiens, HepG2, 72 hr exposure); 1 to 10 µM in assay [3] (Homo sapiens, HCT-116, 72 hr exposure); less than 1 µM in assay [4] (Homo sapiens, MIA PaCa-2, 72 hr exposure); less than 1 µM in assay [5] (Homo sapiens, CFPAC-1, 72 hr exposure); 10 to 100 µM in assay [6] (setting [14]). Further, the IC50 is less than 1 µM in assay [7] (Homo sapiens, A498, 72 hr exposure) and less than 1 µM in assay [8] (Homo sapiens, BXPC-3, 72 hr exposure).
In the case of `CC(C)(C)SSCCOP(=O)(NCc1ccccc1)OC[C@H]1O[C@@H](n2ccc(N)nc2=O)C(F)(F)[C@@H]1O` (single isomer, unassigned) [111 (diastereomer 1)], the IC50 in assay [1] (setting [9]), in assay [2] (72 hr exposure), in assay [3] (72 hr exposure), in assay [4] (72 hr exposure), in assay [5] (72 hr exposure) and in assay [6] (setting [14]) was 10 to 100 µM throughout. The IC50 in assay [7] (setting [15]) and in assay [8] (72 hr exposure) was 10 to 100 µM each time.
Consider `COC(=O)[C@H](CC(C)C)NP(=O)(N[C@@H](CC(C)C)C(=O)OC)OC[C@H]1O[C@@H](n2ccc(N)nc2=O)C(F)(F)[C@@H]1O` [Compound 109, Methyl (2S)-2-[[[(2R,3R,5R)-5-(4-amino-2-oxo-pyrimidin-1-yl)-4,4-difluoro-3-hydroxy-tetrahydrofuran-2-yl]methoxy-[[(1S)-1-methoxycarbonyl-3-methyl-butyl]amino]phosphoryl]amino]-4-methyl-pentanoate], for which the IC50 in assay [1] (setting [9]) lay within 10 to 100 µM; in assay [2] (setting [10]), 1 to 10 µM; in assay [3] (setting [11]), 10 to 100 µM; in assay [4] (setting [12]), 10 to 100 µM; in assay [5] (setting [13]), 1 to 10 µM; in assay [6] (setting [14]), 10 to 100 µM. Also, the IC50 in assay [7] (setting [15]) and in assay [8] (setting [16]) was 10 to 100 µM each time.
In the case of `CC(C)(C)C(=O)SCCOP1(=O)OC[C@H]2O[C@@H](n3ccc(N)nc3=O)C(F)(F)[C@@H]2O1` (single isomer, unassigned) [104 (diastereomer 1)], the 50% inhibitory concentration (IC50) is 1 to 10 µM in assay [1] (setting [9]); less than 1 µM in assay [2] (setting [10]); 1 to 10 µM in assay [3] (setting [11]); less than 1 µM in assay [4] (setting [12]); less than 1 µM in assay [5] (setting [13]); 1 to 10 µM in assay [6] (setting [14]). The IC50 in assay [7] (72 hr exposure) was 10 to 100 µM; in assay [8] (setting [16]), less than 1 µM.
Turning to `CC(C)OC(=O)[C@@H](C)NP1(=O)OC[C@H]2O[C@@H](n3ccc(N)nc3=O)C(F)(F)[C@@H]2O1` (single isomer, unassigned) [101 (diastereomer 1)], the IC50 was 10 to 100 µM in assay [1] (setting [17]); less than 1 µM in assay [2] (72 hr exposure); 1 to 10 µM in assay [3] (72 hr exposure); less than 1 µM in assay [4] (72 hr exposure); less than 1 µM in assay [5] (72 hr exposure); 10 to 100 µM in assay [6] (setting [14]). In addition, the IC50 in assay [7] (72 hr exposure) was 1 to 10 µM; in assay [8] (72 hr exposure) it was 10 to 100 µM.
`COC(=O)[C@H](CCCCNP1(=O)OC[C@H]2O[C@@H](n3ccc(N)nc3=O)C(F)(F)[C@@H]2O1)NC(=O)OC(C)(C)C` (single isomer, unassigned) [106 (diastereomer 1)]: the IC50 is 10 to 100 µM in assay [1] (setting [9]); less than 1 µM in assay [2] (setting [10]); 10 to 100 µM in assay [3] (72 hr exposure); 1 to 10 µM in assay [4] (setting [12]); 1 to 10 µM in assay [5] (setting [13]); 10 to 100 µM in assay [6] (setting [14]). Also, the 50% inhibitory concentration (IC50) in assay [7] (setting [15]) and in assay [8] (72 hr exposure) was 10 to 100 µM in each case.
For `CC(C)OP(=O)(OC[C@H]1O[C@@H](n2ccc(N)nc2=O)C(F)(F)[C@@H]1O)OC(C)C` [Compound 119], the IC50 in assay [1] (setting [9]), in assay [2] (setting [10]), in assay [3] (setting [11]), in assay [4] (setting [12]), in assay [5] (setting [13]) and in assay [6] (setting [14]) was 10 to 100 µM each time. Moreover, the IC50 in assay [7] (setting [15]) and in assay [8] (setting [16]) was 10 to 100 µM in each case.

The values above are taken from US10766917B2, “Nucleotides for the treatment of cancer” (IDENIX PHARMACEUTICALS LLC, priority 2015, dated 2020).
